Results taken from patent US11339193B2, “CDP protein secretion inhibitors” (KEZAR LIFE SCIENCES, priority 2018, dated 2022).
Like-named read-outs stand apart in the source and are kept apart here. Numbered stars: 1 amine (or outer) side, 2 acyl side, 3 side chain; on linkers, the order of the positions; unused ones are H or OH. Square brackets hold non-standard residues; d marks the D form. Peptide text beside a SMILES is read from it. NMeAla(5-Cl-benzothien-3-yl) = CN[C@@H](Cc1csc2ccc(Cl)cc12)C(=O)O; X13 = CN([C@@H](Cc1cn(Cc2ccc(Br)cc2)c2ccc(F)cc12)C(=O)[*:2])[*:1]; X19 = CN([C@@H](Cc1cn(Cc2ccc(Cl)cc2)c2ccccc12)C(=O)[*:2])[*:1]; X15 = CCn1cc(C[C@@H](C(=O)[*:2])N(C)[*:1])c2ccccc21; X16 = CN([C@@H](Cc1csc2c(Cl)cccc12)C(=O)[*:2])[*:1]; Ala(1-cyclohexenyl) = N[C@@H](CC1=CCCCC1)C(=O)O; Butanoyl(2R-oxy,4-CN) = N#CCC[C@@H](O)C(=O)O; X21 = CN([C@@H](CC1=CCCC1)C(=O)[*:2])[*:1]; Abu(4,4,4-F3) = N[C@@H](CC(F)(F)F)C(=O)O; X12 = O=C([C@H](CC1=CCCC1)N[*:1])[*:2]; NMeL = CN[C@@H](CC(C)C)C(=O)O; NMeA = CN[C@@H](C)C(=O)O

Columns and labels:
Type in all cases: cell-based
[1] = tested on: JJN3 plasma cell leukemia cell line; test: JJN-3 assay (Alamar blue); conditions: Homo sapiens, 72 h
Procedure: BT474 is a human breast tumor cell line. JJN3 is a human plasma cell leukemia cell line. […] Cells were seeded at 100 000 cells/mL. Aliquots of 5000 cells (50 μL) were added to each well in black, clear bottom 96-well plates. Compounds or control (50 uL of 1% DMSO in cell culture medium) were added to the cells to the indicated final concentrations and cells were incubated for 72 h (unless otherwise specified). After incubation was complete, Alamar blue (10 uL of a 1 mg/mL solution) was added to each well and plates were incubated for 5 h. Fluorescence was then measured (excitation 545 nm, emission 590 nm) and is reported as […] normalized to DMSO control.

[2] = tested on: PD1-ss+10aa/Gaussia Luciferase; test: Dox induced PD1-ss-Gluc assay
Summary of the method: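 Stable Flp-In 293 T-REx line expressing doxycycline-inducible Gaussia luciferase fused to the PD1 signal sequence plus 10 amino acids. Cells plated the day before, then exposed to compound dilutions in DMSO/media containing doxycycline at 37 °C, 5% CO2.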

[3] = tested on: TNFα-FL/Gaussia Luciferase; test: Dox induced TNFα-FL-Gluc assay
Summary of the method: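 Stable Flp-In 293 T-REx line expressing full-length TNFα (aa 1-233) fused at its C-terminus to Gaussia luciferase under doxycycline-inducible control. Cells plated the day before, then given compound dilutions in DMSO/media containing doxycycline and incubated at 37 °C, 5% CO2.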

[4] = tested on: NCI-H929 multiple myeloma cell line; test: H929 assay (cell viability, Celltiter-Glo); conditions: Homo sapiens, read-out: H929 EC50
Summary of the method: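 Cells plated in RPMI 1640 with 10% FBS and 2 mM glutamine, treated with compound dilutions in DMSO/media. Incubation 48 h at 37° C, 5% CO2. Viability from luciferase luminescence signal.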

[5] = tested on: Prl-ss+10aa/Gaussia Luciferase; test: Prl-ss-Gluc assay (constitutively active or 24 hr Dox inducible)
From the text: Constitutively Active Prl-ss-Gluc Assay
Flp-In 293 T-REx™ cells were transfected with pcDNA™5/FRT plasmid inserted with cDNA encoding Gaussia Luciferase fused to the 3′ end of cDNA encoding Prl signal sequence plus 10 amino acids (N-[…]-C) (SEQ ID NO:4). Transfected cells were selected for resistance to the selectable markers Hygromycin and Blasticidin to create a stable cell line that constitutively expressed the Prlss+10aa/Gaussia Luciferase fusion protein. The day before assay, cells were trypsinized and plated in 384-well tissue culture plates. The next day, culture media was removed from the wells and replaced with fresh media. Compound dilutions in DMSO/media were added to the wells and incubated at 37° C., 5% CO2.
24 hr Dox Inducible Prl-ss-Gluc Assay
Flp-In 293 T-REx™ cells were transfected with pcDNA™5/FRT/TO plasmid inserted with cDNA encoding Gaussia Luciferase fused to the 3′ end of cDNA encoding Prl signal sequence plus 10 amino acids (N-[…]-C) (SEQ ID NO:5). Transfected cells were selected for resistance to the selectable markers Hygromycin and Blasticidin to create a stable cell line that contained the Prl-ss+10aa/Gaussia Luciferase cDNA insert whose expression was regulated under the T-REx™ system. The day before assay, cells were trypsinized and plated in 384-well tissue culture plates. The next day, compound dilutions in DMSO/media containing doxycycline were added to the wells and incubated at 37° C., 5% CO2.

[6] = tested on: HER3ss-Gluc; test: HER3ss assay
Procedure: The mature domain of secreted luciferase from Gaussia princeps (GLuc) was cloned into pcDNA5/FRT/TO. The signal sequence plus four amino acids of the mature domain from HER3 ([…]) (SEQ ID NO:8) were cloned upstream of GLuc mature domain and used in transient transfection experiment. HEK-293T T-rex cells were cultured in Dulbecco's modified Eagle's medium with 10% FBS at 5% CO2. Cells were plated 1×10e6 cells per well in a 6-well plate and incubated for 6 h. Cells were transiently transfected with HER3ss-Gluc using Lipofectamine 2000 (Invitrogen). After overnight incubation, transfected cells were replated in a clear-bottomed, black 96-well plate at a density of 20,000 cells per well. Six hours after plating, the cells were treated with doxycycline (1 μg/ml) and increasing concentrations of the indicated compounds for 24 h. Secreted luciferase in the conditioned media was quantified by luminescence using the BioLux Gaussia Luciferase Assay Kit (New England Biolabs, Ipswich, Mass., USA) and a SpectraMax M5 plate reader (Molecular Devices).

[7] = tested on: U266B1 multiple myeloma cell line; test: U266 assay (cell viability, Celltiter-Glo); conditions: Homo sapiens, U-266; I.A.
Procedure: Cells were plated in 384-well tissue culture plates and treated with compound dilutions in DMSO/media. Plates were incubated at 37° C., 5% CO2 for 48 hours. After 48 hours, Celltiter-Glo@ (Promega) was added to each well and luciferase signal was quantified using Tecan Infinite M1000 Pro for cell viability determination.

[8] = Flp-In 293 T-REx cells, doxycycline, 24 hours; read-out: PD1ss Gluc IC50
[9] = I.A.; read-out: TNFa FL Gluc IC50
[10] = HEK-293T T-rex cells, transient transfection, doxycycline, 24 h; read-out: HER3 ss IC50
[11] = Flp-In 293 T-REx cells, doxycycline, 24 hours; read-out: TNFa FL Gluc IC50
[12] = NCI-H929, 48 hours, cell viability
[13] = Flp-In 293 T-REx cells, 24 hours; read-out: Prl IC50

Row | IC50 [2, 8] [nM] | IC50 ([5]; I.A.; read-out: Prl IC50) [nM] | IC50 [6, 10] [nM] | EC50 [7] [nM] | IC50 [3, 11] [nM] | EC50 [4, 12] [µM] | Structure (SMILES) | also measured
1 | 425 |  | 74 | > 25000 | 1240 | 6.05 | CC(C)C[C@@H]1NC(=O)[C@H](Cc2csc3c(Cl)cccc23)N(C)C(=O)[C@H](CC(C)C)NC(=O)[C@H](CC(C)C)N(C)C(=O)[C@H](CC(F)(F)F)NC(=O)[C@@H](CCC#N)OC(=O)[C@H](C)N(C)C1=O [C-94] (cyclo(L[NMeA][Butanoyl(2R-oxy,4-CN)][Abu(4,4,4-F3)][NMeL]L[X16])) | IC50 [5, 13]: 19300 nM
2 | 472 | > 25000 | 6 | > 25000 | 3840 | 8.4 | CC(C)C[C@@H]1NC(=O)[C@H](Cc2csc3ccc(Cl)cc23)N(C)C(=O)[C@H](CC2=CCCC2)NC(=O)[C@H](CC(C)C)N(C)C(=O)[C@H](CC(F)(F)F)NC(=O)[C@@H](CCC#N)OC(=O)[C@H](C)N(C)C1=O [C-96] (cyclo(L[NMeA][Butanoyl(2R-oxy,4-CN)][Abu(4,4,4-F3)][NMeL][X12][NMeAla(5-Cl-benzothien-3-yl)])) | 
3 | 149 |  | 30 | > 25000 | 605 | 5.26 | CC(C)C[C@@H]1NC(=O)[C@H](Cc2csc3ccc(Cl)cc23)N(C)C(=O)[C@H](CC(C)C)NC(=O)[C@H](CC(C)C)N(C)C(=O)[C@H](CC2=CCCCC2)NC(=O)[C@@H](CCC#N)OC(=O)[C@H](C)N(C)C1=O [C-99] (cyclo(L[NMeA][Butanoyl(2R-oxy,4-CN)][Ala(1-cyclohexenyl)][NMeL]L[NMeAla(5-Cl-benzothien-3-yl)])) | IC50 [5, 13]: 19800 nM
4 | 709 | > 25000 | 6 | > 25000 |  |  | CC(C)C[C@@H]1NC(=O)[C@H](Cc2csc3ccc(Cl)cc23)N(C)C(=O)[C@H](CC2=CCCCC2)NC(=O)[C@H](CC(C)C)N(C)C(=O)[C@H](CC(F)(F)F)NC(=O)[C@@H](CCC#N)OC(=O)[C@H](C)N(C)C1=O [C-97] (cyclo(L[NMeA][Butanoyl(2R-oxy,4-CN)][Abu(4,4,4-F3)][NMeL][Ala(1-cyclohexenyl)][NMeAla(5-Cl-benzothien-3-yl)])) | IC50 [3, 9]: > 25000 nM; EC50 ([4]; NCI-H929, 48 hours, cell viability, μM): > 20 µM

Further lines, the molecule ahead of its results:

Row | Structure (SMILES) | IC50 [2, 8] [nM] | IC50 ([5]; I.A.; read-out: Prl IC50) [nM] | IC50 [6, 10] [nM] | EC50 [7] [nM] | IC50 [3, 11] [nM] | EC50 [4, 12] [µM] | also measured
5 | CC(C)C[C@@H]1NC(=O)[C@H](Cc2cn(Cc3ccc(F)cc3)c3ccccc23)N(C)C(=O)[C@H](CC(C)C)NC(=O)[C@H](CC(C)C)N(C)C(=O)[C@H](CC(C)C)NC(=O)[C@@H](C)OC(=O)[C@H](C)N(C)C1=O [C-30] (HELM PEPTIDE1{L.[meA].[C[C@@H](O[*:1])C(=O)[*:2]].L.[meL].L.[CN([C@@H](Cc1cn(Cc2ccc(F)cc2)c2ccccc12)C(=O)[*:2])[*:1]]}$PEPTIDE1,PEPTIDE1,1:R1-7:R2$$$V2.0) |  |  |  |  |  |  | EC50 [1]: 14200 nM
6 | CC(C)C[C@@H]1NC(=O)[C@H](Cc2csc3ccc(Cl)cc23)N(C)C(=O)[C@H](CC(C)C)NC(=O)[C@H](CC2=CCCC2)N(C)C(=O)[C@H](CC(F)(F)F)NC(=O)[C@@H](CCC#N)OC(=O)[C@H](C)N(C)C1=O [C-81] (cyclo(L[NMeA][Butanoyl(2R-oxy,4-CN)][Abu(4,4,4-F3)][X21]L[NMeAla(5-Cl-benzothien-3-yl)])) | 934 | > 25000 | 88 | > 25000 |  |  | IC50 [3, 9]: > 25000 nM; EC50 ([4]; NCI-H929, I.A.): > 25 µM
7 | CC(C)C[C@@H]1NC(=O)[C@H](Cc2cn(Cc3ccc(Br)cc3)c3ccc(F)cc23)N(C)C(=O)[C@H](CC(F)(F)F)NC(=O)[C@H](CC(C)C)N(C)C(=O)[C@H](CC(F)(F)F)NC(=O)[C@@H](CCC#N)OC(=O)[C@H](C)N(C)C1=O [C-82] (cyclo(L[NMeA][Butanoyl(2R-oxy,4-CN)][Abu(4,4,4-F3)][NMeL][Abu(4,4,4-F3)][X13])) | 42 |  | 98 | > 25000 | 104 | 0.649 | IC50 [5, 13]: 506 nM
8 | CCn1cc(C[C@H]2C(=O)N[C@@H](CC(C)C)C(=O)N(C)[C@@H](C)C(=O)O[C@H](CCC#N)C(=O)N[C@@H](CC(F)(F)F)C(=O)N(C)[C@@H](CC(C)C)C(=O)N[C@@H](CC(F)(F)F)C(=O)N2C)c2ccccc21 [C-79] (cyclo(L[NMeA][Butanoyl(2R-oxy,4-CN)][Abu(4,4,4-F3)][NMeL][Abu(4,4,4-F3)][X15])) | 390 | > 25000 | 112 | > 25000 | 1490 | 4.74 | 
9 | CC(C)C[C@@H]1NC(=O)[C@H](Cc2csc3ccc(Cl)cc23)N(C)C(=O)[C@H](CC2=CCCCC2)NC(=O)[C@H](CC(C)C)N(C)C(=O)[C@H](CC2=CCCC2)NC(=O)[C@@H](CCC#N)OC(=O)[C@H](C)N(C)C1=O [C-85] (cyclo(L[NMeA][Butanoyl(2R-oxy,4-CN)][X12][NMeL][Ala(1-cyclohexenyl)][NMeAla(5-Cl-benzothien-3-yl)])) | 1140 | > 25000 | 7 | > 25000 |  |  | IC50 [3, 9]: > 25000 nM; EC50 ([4]; NCI-H929, I.A.): > 25 µM
10 | CC(C)C[C@@H]1NC(=O)[C@H](CC(C)C)N(C)C(=O)[C@H](CC(F)(F)F)NC(=O)[C@@H](CCC#N)OC(=O)[C@H](C)N(C)C(=O)[C@H](CC2=CCCCC2)NC(=O)[C@H](Cc2csc3ccc(Cl)cc23)N(C)C1=O [C-88] (cyclo(L[NMeAla(5-Cl-benzothien-3-yl)][Ala(1-cyclohexenyl)][NMeA][Butanoyl(2R-oxy,4-CN)][Abu(4,4,4-F3)][NMeL])) | 149 | > 25000 | 65 | > 25000 | 1380 | 5.64 | 
11 | CC(C)C[C@@H]1NC(=O)[C@H](Cc2cn(Cc3ccc(Cl)cc3)c3ccccc23)N(C)C(=O)[C@H](CC(C)C)NC(=O)[C@H](CC(C)C)N(C)C(=O)[C@H](CC(F)(F)F)NC(=O)[C@@H](CCC#N)OC(=O)[C@H](C)N(C)C1=O [C-95] (cyclo(L[NMeA][Butanoyl(2R-oxy,4-CN)][Abu(4,4,4-F3)][NMeL]L[X19])) |  |  |  | > 25000 |  |  | IC50 ([2]; read-out: PD1ss Gluc IC50; Flp-In 293 T-REx cells, doxycycline, 24 hours): 19 nM; IC50 ([3]; read-out: TNFa FL Gluc IC50; Flp-In 293 T-REx cells, doxycycline, 24 hours): 93 nM; EC50 ([4]; NCI-H929, 48 h): 0.588 µM; IC50 ([5]; read-out: Prl IC50; Flp-In 293 T-REx cells, 24 hours): 391 nM; IC50 ([6]; read-out: HER3 ss IC50; HEK-293T T-rex cells, transient transfection, doxycycline, 24 h): 35 nM
